Measurements as given in patent US8232305B2, “Anti-microbial compositions” (BASF SE, priority 2006, dated 2012).

Key:
[1] = test system: Staphylococcus aureus; assay: Microbicidal activity according to EN1040; type: cell-based; details: 1000 ppm, room temperature, vs growth control in water
Protocol: (§1) A bacterial suspension with a cell count of about 10^7 cfu/ml is contacted with appropriate concentrations of the specific substances and the residual cell count determined after incubation times of 5 and 30 minutes at room temperature under continuous stirring. Staphylococcus aureus was tested as gram+ and Escherichia coli as gram− organism. The results are given as a log reduction in comparison to a growth control in water.

[2] = test system: Escherichia coli; assay: Microbicidal activity according to EN1040; type: cell-based; details: 1000 ppm, room temperature, vs growth control in water
Protocol: as §1

[3] = test system: Aureobasidium pullulans; assay: Fungicidal activity according to EN12175; type: cell-based; details: spores about 10^6 cfu/ml, vs water control; for log reduction A. pullulans 30 min: 1%
Protocol: (§2) Fungicidal activity is tested according to EN12175. A fungal spore suspension with a spore cell count of about 10^6 cfu/ml is contacted with appropriate concentrations of the specific substances and the residual spore cell count determined after incubation times of 30 and 60 minutes at room temperature under continuous stirring. Penicillium funiculosum, Aspergillus niger and Aureobasidium pullulans are tested as important mold strains. The results are given as a log reduction at each incubation time in comparison to a water control.

[4] = test system: Penicillium funiculosum; assay: Fungicidal activity according to EN12175; type: cell-based; details: spores about 10^6 cfu/ml, vs water control; for log reduction P. funiculosum 30 min: 1%
Protocol: as §2

[5] = test system: Aspergillus niger; assay: Fungicidal activity according to EN12175; type: cell-based; details: spores about 10^6 cfu/ml, vs water control; for log reduction A. niger 30 min: 1%
Protocol: as §2

[6] = test system: S. aureus ATCC 6538; assay: Microbicidal activity under conditions similar to a preservative challenge test; type: cell-based; details: 0.5%, inoculum 10^5 cfu/ml
Protocol: as §1
(§3) The test procedure of Example 7 is used, with an inoculum concentration of 10^5 cfu/ml and incubation times of 48 and 72 hours; figures given as log reduction.

[7] = test system: E. coli ATCC 10536; assay: as above; type: cell-based; details: 0.5%, inoculum 10^5 cfu/ml
Protocol: as §1, §3

[8] = test system: C. albicans ATCC 10231; assay: as above; type: cell-based; details: 0.5%, inoculum 10^5 cfu/ml
Protocol: as §1, §3

[9] = test system: A. niger ATCC 16404; assay: as above; type: cell-based; details: 0.5%, inoculum 10^5 cfu/ml
Protocol: as §1, §3

[10] = test system: P. aeruginosa ATCC 15442; assay: as above; type: cell-based; details: 0.5%, inoculum 10^5 cfu/ml
Protocol: as §1, §3

[11] = Formulation of stable w/o or o/w emulsions; type: physicochemical; details: comparable concentrations (0.5% w/w) in the w/o and o/w emulsions of Example 10
[12] = test system: cocci, rods and fungi; details: Pernak et al., 226th ACS National Meeting 2003; cited from earlier work
[13] = test system: A. niger; assay: Preservative challenge test in cosmetic emulsions (EurPh and USP); type: cell-based; details: 0.5% w/w
Protocol: (§4) A preservative challenge test is conducted for representative cosmetic formulations according to the conditions of the EurPh and USP. The compound concentration in the formulations is 0.5% w/w. The Inoculum concentration of the five different strains is 2.1-4.2×10^5 cfu/ml, incubation time according to EurPh. 2, 7, 14 and 28 days. Preservation is investigated in two different emulsion types, w/o and o/w.

[14] = test system: C. albicans; assay: as above; type: cell-based; details: 0.5% w/w
Protocol: as §4

[15] = test system: S. aureus; assay: as above; type: cell-based; details: 0.5% w/w
Protocol: as §4

[16] = test system: E. coli; assay: as above; type: cell-based; details: 0.5% w/w
Protocol: as §4

[17] = test system: P. aerug.; assay: as above; type: cell-based; details: 0.5% w/w
Protocol: as §4

Compound: CCCCOC(=O)C[n+]1ccn(C)c1.[Br-] [Ex 3]
- log reduction S. aureus 5 min. [1]: <1 log
- log reduction S. aureus 30 min. [1]: <1 log
- log reduction E. coli 5 min. [2]: <1 log
- log reduction E. coli 30 min. [2]: <1 log
- log reduction A. pullulans 30 min [3]: <1 log
- log reduction A. pullulans 1 h [3]: <1 log
- log reduction P. funiculosum 30 min [4]: <1 log
- log reduction P. funiculosum 1 h [4]: <1 log
- log reduction A. niger 30 min [5]: <1 log
- log reduction A. niger 1 h [5]: <1 log
- log reduction S. aureus ATCC 6538 48 h [6]: >3 log
- log reduction S. aureus ATCC 6538 72 h [6]: >3 log
- log reduction E. coli ATCC 10536 48 h [7]: >3 log
- log reduction E. coli ATCC 10536 72 h [7]: >3 log
- log reduction C. albicans ATCC 10231 48 h [8]: 1.4 log
- log reduction C. albicans ATCC 10231 72 h [8]: 1.7 log
- log reduction A. niger ATCC 16404 48 h [9]: <1 log
- log reduction A. niger ATCC 16404 72 h [9]: <1 log
- log reduction P. aeruginosa ATCC 15442 48 h [10]: >3 log
- log reduction P. aeruginosa ATCC 15442 72 h [10]: >3 log

Compound: benzalkonium chloride
- stability of w/o or o/w emulsions formulated with the agent [11]: No stable w/o or o/w emulsions could be formulated

Compound: CCCCCCCCOC[n+]1ccn(C)c1.F[B-](F)(F)F [1-methyl-3-octyloxymethylimidazolium tetrafluoroborate]
- effectiveness against cocci, rods and fungi [12]: the most effective of the ionic liquids tested

Compound: CCCCCCCCOC(=O)C[n+]1ccn(C)c1.[Br-] [Ex 2, 1-methyl-3-(2-oxo-2-octyloxyethyl)-1H-Imidazolium bromide]
- log reduction S. aureus 5 min. [1]: 3.2 log
- log reduction S. aureus 30 min. [1]: 3.7 log
- log reduction E. coli 5 min. [2]: <1 log
- log reduction E. coli 30 min. [2]: 1.2 log
- log reduction A. pullulans 30 min [3]: >4 log
- log reduction A. pullulans 1 h [3]: >4 log
- log reduction P. funiculosum 30 min [4]: <1 log
- log reduction P. funiculosum 1 h [4]: <1 log
- log reduction A. niger 30 min [5]: <1 log
- log reduction A. niger 1 h [5]: 2.0 log
- log reduction S. aureus ATCC 6538 48 h [6]: >3 log
- log reduction S. aureus ATCC 6538 72 h [6]: >3 log
- log reduction E. coli ATCC 10536 48 h [7]: >3 log
- log reduction E. coli ATCC 10536 72 h [7]: >3 log
- log reduction C. albicans ATCC 10231 48 h [8]: >3 log
- log reduction C. albicans ATCC 10231 72 h [8]: >3 log
- log reduction A. niger ATCC 16404 48 h [9]: 1.8 log
- log reduction A. niger ATCC 16404 72 h [9]: 2.3 log
- log reduction P. aeruginosa ATCC 15442 48 h [10]: >3 log
- log reduction P. aeruginosa ATCC 15442 72 h [10]: >3 log
- Log Reduction A. niger ([13]; O/W emulsion, 2 days): 0 log
- Log Reduction A. niger ([13]; O/W emulsion, 7 days): 0 log
- Log Reduction A. niger ([13]; O/W emulsion, 14 days): 0 log
- Log Reduction A. niger ([13]; O/W emulsion, 28 days): 0 log
- Log Reduction A. niger ([13]; W/O emulsion, 2 days): 0 log
- Log Reduction A. niger ([13]; W/O emulsion, 7 days): 0 log
- Log Reduction A. niger ([13]; W/O emulsion, 14 days): 0 log
- Log Reduction A. niger ([13]; W/O emulsion, 28 days): 0 log
- Log Reduction C. albicans ([14]; O/W emulsion, 2 days): 0 log
- Log Reduction C. albicans ([14]; O/W emulsion, 7 days): 2 log
- Log Reduction C. albicans ([14]; O/W emulsion, 14 days): ≧3 log
- Log Reduction C. albicans ([14]; O/W emulsion, 28 days): 5 log
- Log Reduction C. albicans ([14]; W/O emulsion, 2 days): 1 log
- Log Reduction C. albicans ([14]; W/O emulsion, 7 days): ≧3 log
- Log Reduction C. albicans ([14]; W/O emulsion, 14 days): 5 log
- Log Reduction C. albicans ([14]; W/O emulsion, 28 days): 5 log
- Log Reduction S. aureus ([15]; O/W emulsion, 2 days): ≧4 log
- Log Reduction S. aureus ([15]; O/W emulsion, 7 days): 6 log
- Log Reduction S. aureus ([15]; O/W emulsion, 14 days): 6 log
- Log Reduction S. aureus ([15]; O/W emulsion, 28 days): 6 log
- Log Reduction S. aureus ([15]; W/O emulsion, 2 days): 6 log
- Log Reduction S. aureus ([15]; W/O emulsion, 7 days): 6 log
- Log Reduction S. aureus ([15]; W/O emulsion, 14 days): 6 log
- Log Reduction S. aureus ([15]; W/O emulsion, 28 days): 6 log
- Log Reduction E. coli ([16]; O/W emulsion, 2 days): 3 log
- Log Reduction E. coli ([16]; O/W emulsion, 7 days): ≧4 log
- Log Reduction E. coli ([16]; O/W emulsion, 14 days): 6 log
- Log Reduction E. coli ([16]; O/W emulsion, 28 days): 6 log
- Log Reduction E. coli ([16]; W/O emulsion, 2 days): 6 log
- Log Reduction E. coli ([16]; W/O emulsion, 7 days): 6 log
- Log Reduction E. coli ([16]; W/O emulsion, 14 days): 6 log
- Log Reduction E. coli ([16]; W/O emulsion, 28 days): 6 log
- Log Reduction P. aerug. ([17]; O/W emulsion, 2 days): ≧4 log
- Log Reduction P. aerug. ([17]; O/W emulsion, 7 days): 5 log
- Log Reduction P. aerug. ([17]; O/W emulsion, 14 days): 5 log
- Log Reduction P. aerug. ([17]; O/W emulsion, 28 days): 5 log
- Log Reduction P. aerug. ([17]; W/O emulsion, 2 days): 5 log
- Log Reduction P. aerug. ([17]; W/O emulsion, 7 days): 5 log
- Log Reduction P. aerug. ([17]; W/O emulsion, 14 days): 5 log
- Log Reduction P. aerug. ([17]; W/O emulsion, 28 days): 5 log

Compound: CCCCCCCCCCCCOC(=O)C[n+]1ccn(C)c1.[Br-] [Ex 4]
- log reduction S. aureus 5 min. [1]: >5 log
- log reduction S. aureus 30 min. [1]: >5 log
- log reduction E. coli 5 min. [2]: >5 log
- log reduction E. coli 30 min. [2]: >5 log
- log reduction A. pullulans 30 min [3]: >4 log
- log reduction A. pullulans 1 h [3]: >4 log
- log reduction P. funiculosum 30 min [4]: <1 log
- log reduction P. funiculosum 1 h [4]: 1.9 log
- log reduction A. niger 30 min [5]: 2.1 log
- log reduction A. niger 1 h [5]: >4 log
- log reduction S. aureus ATCC 6538 48 h [6]: >3 log
- log reduction S. aureus ATCC 6538 72 h [6]: >3 log
- log reduction E. coli ATCC 10536 48 h [7]: >3 log
- log reduction E. coli ATCC 10536 72 h [7]: >3 log
- log reduction C. albicans ATCC 10231 48 h [8]: >3 log
- log reduction C. albicans ATCC 10231 72 h [8]: >3 log
- log reduction A. niger ATCC 16404 48 h [9]: 1.8 log
- log reduction A. niger ATCC 16404 72 h [9]: 2.3 log
- log reduction P. aeruginosa ATCC 15442 48 h [10]: >3 log
- log reduction P. aeruginosa ATCC 15442 72 h [10]: >3 log
- Log Reduction A. niger ([13]; O/W emulsion, 2 days): 0 log
- Log Reduction A. niger ([13]; O/W emulsion, 7 days): 0 log
- Log Reduction A. niger ([13]; O/W emulsion, 14 days): 0 log
- Log Reduction A. niger ([13]; O/W emulsion, 28 days): 0 log
- Log Reduction A. niger ([13]; W/O emulsion, 2 days): 0 log
- Log Reduction A. niger ([13]; W/O emulsion, 7 days): 1 log
- Log Reduction A. niger ([13]; W/O emulsion, 14 days): 2 log
- Log Reduction A. niger ([13]; W/O emulsion, 28 days): 2 log
- Log Reduction C. albicans ([14]; O/W emulsion, 2 days): 0 log
- Log Reduction C. albicans ([14]; O/W emulsion, 7 days): 0 log
- Log Reduction C. albicans ([14]; O/W emulsion, 14 days): 0 log
- Log Reduction C. albicans ([14]; O/W emulsion, 28 days): 0 log
- Log Reduction C. albicans ([14]; W/O emulsion, 2 days): 2 log
- Log Reduction C. albicans ([14]; W/O emulsion, 7 days): 3 log
- Log Reduction C. albicans ([14]; W/O emulsion, 14 days): 3 log
- Log Reduction C. albicans ([14]; W/O emulsion, 28 days): 5 log
- Log Reduction S. aureus ([15]; O/W emulsion, 2 days): 4 log
- Log Reduction S. aureus ([15]; O/W emulsion, 7 days): 6 log
- Log Reduction S. aureus ([15]; O/W emulsion, 14 days): 6 log
- Log Reduction S. aureus ([15]; O/W emulsion, 28 days): 6 log
- Log Reduction S. aureus ([15]; W/O emulsion, 2 days): 6 log
- Log Reduction S. aureus ([15]; W/O emulsion, 7 days): 6 log
- Log Reduction S. aureus ([15]; W/O emulsion, 14 days): 6 log
- Log Reduction S. aureus ([15]; W/O emulsion, 28 days): 6 log
- Log Reduction E. coli ([16]; O/W emulsion, 2 days): 1 log
- Log Reduction E. coli ([16]; O/W emulsion, 7 days): 1 log
- Log Reduction E. coli ([16]; O/W emulsion, 14 days): 2 log
- Log Reduction E. coli ([16]; O/W emulsion, 28 days): ≧4 log
- Log Reduction E. coli ([16]; W/O emulsion, 2 days): 6 log
- Log Reduction E. coli ([16]; W/O emulsion, 7 days): 6 log
- Log Reduction E. coli ([16]; W/O emulsion, 14 days): 6 log
- Log Reduction E. coli ([16]; W/O emulsion, 28 days): 6 log
- Log Reduction P. aerug. ([17]; O/W emulsion, 2 days): ≧4 log
- Log Reduction P. aerug. ([17]; O/W emulsion, 7 days): 5 log
- Log Reduction P. aerug. ([17]; O/W emulsion, 14 days): 5 log
- Log Reduction P. aerug. ([17]; O/W emulsion, 28 days): 5 log
- Log Reduction P. aerug. ([17]; W/O emulsion, 2 days): 5 log
- Log Reduction P. aerug. ([17]; W/O emulsion, 7 days): 5 log
- Log Reduction P. aerug. ([17]; W/O emulsion, 14 days): 5 log
- Log Reduction P. aerug. ([17]; W/O emulsion, 28 days): 5 log
